Measured values: patent US20140335083A1, “METHODS OF TREATMENT AND PREVENTION OF EYE DISEASES” (GLAXO GROUP LIMITED, priority 2011, published 2014)

Assays:
Assay type in all cases: in vivo
[1] = system: laser-induced CNV in C57BL/6 mice; assay: Laser-induced CNV in C57/BL6 mice, fluorescein angiography
Description: Adult 12 weeks old female C57BL/6 mice were used to generate the laser-induced CNV model. Mice were anesthetized by intraperitoneal ketamine hydrochloride (25 mg/kg) and xylazine (10 mg/kg) and their pupils dilated by topical tropicamide 1%. Laser-photocoagulation was performed a diode laser (680 nm; 210 mW power, 100 ms duration, 100 […]) under direct vision using a hand-held cover slide as a contact lens and were localized to the 2, 10, and 6 o'clock positions of the posterior pole of the retina in both eyes. These laser settings consistently generate a subretinal gas bubble which strongly correlates with laser-induced rupture of Bruch's membrane and successful induction of CNV. Only lesions in which a bubble is formed were included in the analysis. Fluorescein angiography using a Kowa Genesis small animal fundus camera was conducted at 1 week and 2 weeks following induction of CNV. The size of CNV lesions were quantified by digital image analysis the mean area of hyperfluorescence per lesion during the early phase (90 seconds post fluorescein injection). The pupils were dilated by topical tropicamide 1% and fluorescein sodium 2% administered by intraperitoneal injection (0.2 ml). Eyes were excluded if there was significant cataract or keratopathy that could affect laser energy delivery or angiography.
Adult 12 weeks old female C57BL/6 mice were used to generate the laser-induced CNV (3 CNV lesions per mouse retina) model using laser photocoagulation and puncture of Bruch's membrane.
The statistical analysis conducted here is stringent in that number of observations are related to the number of animals treated whereas in most other studies (conducted in the wider literature) using this laser-induced model each lesion (3 CNV lesions per mouse retina) are regarded as independent observations. […] However it is clear that in the case of orally dosed pazopanib either statistical approach would have yielded a robust effect or as such the effect of CCR3 inhibitor '994 in this model appears weaker than orally dosed pazopanib.

[2] = system: retinal neovascularization in C57BL/6 mice; assay: Oxygen-induced retinopathy, area of retinal neovascularization; conditions: hyperbaric oxygen
Description: C57BL/6 mice placed in 75% O2 at postnatal day (P) 7 and at P12 were returned to room air and treatment initiated with compound or vehicle. At P17, the area of retinal NV on the surface of the retina was measured as described previously (Shen et al., 2007). Briefly, P17 mice were given an intraocular injection of 1 μl of rat anti-mouse platelet endothelial cell adhesion molecule-1 (PECAM-1) antibody (Pharmingen, San Jose, Calif., USA); after 12 h, they were euthanized, and eyes were fixed in PBS-buffered formalin for 5 h at room temperature. Retinas were dissected, washed, and incubated with goat-anti rat polyclonal antibody conjugated with Alexa 488 (Invitrogen, Carlsbad, Calif., USA) at 1:500 dilution at room temperature for 45 min and flat mounted. An observer masked with respect to treatment group measured the area of NV per retina by image analysis.
(see, FIGS. 12 and 13). In systemic experiments both eyes were examined and no significant differences were observed between CCR3 inhibitor '994 and vehicle treated groups. In topical experiments no significant differences were noted between CCR3 inhibitor '994 and vehicle groups nor treated and fellow eye in the CCR3 inhibitor '994 treated group. […] Consequently SU4312 acts similarly on retinal neovascularization to that of an alternative receptor tyrosine kinase inhibitor pazopanib which was effective in limiting choroidal neovascularization.

CCR3 = biological target: T1, CCR3 (Mus musculus, UniProt P51678); assay: Fractional CCR3 receptor occupancy calculated from blood concentrations in juvenile mice
T1 construct: endogenous in cells; host or cells: juvenile mice in vivo; CCR3-bearing cells, mainly eosinophils
T1 sequence (P51678 1-359): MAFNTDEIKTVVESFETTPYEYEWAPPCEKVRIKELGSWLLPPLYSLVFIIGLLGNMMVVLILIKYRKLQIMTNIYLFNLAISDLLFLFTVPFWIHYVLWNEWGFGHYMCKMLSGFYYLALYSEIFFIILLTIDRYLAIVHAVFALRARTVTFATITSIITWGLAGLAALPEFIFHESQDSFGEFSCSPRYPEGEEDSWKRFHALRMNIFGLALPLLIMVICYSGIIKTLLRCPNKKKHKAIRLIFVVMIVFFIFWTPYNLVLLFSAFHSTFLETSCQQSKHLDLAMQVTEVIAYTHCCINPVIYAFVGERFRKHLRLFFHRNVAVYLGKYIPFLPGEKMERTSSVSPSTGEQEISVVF
Description: Following dosing of 8 mg/kg i.p QD CCR3 inhibitor '994 in juvenile mice to mimic exposure effects in JR5558 mice, blood concentration at 24 hrs was calculated for 2 mg/kg i.p, 8 mg.kg i.p and 30 mg/kg i.p. doses by projecting the log linear phase of the PK profile. Blood drug concentrations were then used to determine fractional receptor occupancy using the Langmuir binding isotherm and the pKi for CCR3 inhibitor '994 (estimated in a mouse eosinophil chemotaxis assay). The receptor occupancy values are small over estimates of the true value as the pKi for CCR3 inhibitor '994 was determined in buffer and not blood. The fractional CCR3 receptor occupancy will largely be due to binding to eosinophils as this is the predominant CCR3 bearing cell population. […] This same group also used very small doses of anti-CCR3 antibodies dosed by intravitreal injection to limit laser-induced CNV in mouse models and these very small doses would have very limited impact of fractional receptor occupancy even if they were able to access the systemic circulation. In addition, topical dosing of CCR3 inhibitor '994 as an eye drop formulation was also efficacious in the JR5558 model. […] It is highly likely however that systemic dosing drives exposure of CCR3 antagonist in the eye and ultimately the effect on disease and the exposure in the eye is likely to be a complex function of the systemic exposure and thus an understanding of the systemic pharmacokinetics driving efficacy may be important in profiling systemic therapies.

fractional CCR3 receptor occupancy (CCR3; 2 mg/kg i.p., 24 h trough): 3.1%
fractional CCR3 receptor occupancy (CCR3; 2 mg/kg i.p., at 8 hours): 97.95%
fractional CCR3 receptor occupancy (CCR3; 8 mg/kg i.p., 24 h trough): 11.36%
fractional CCR3 receptor occupancy (CCR3; 8 mg/kg i.p., at 8 hours): 99.48%
fractional CCR3 receptor occupancy (CCR3; 30 mg/kg i.p., 24 h trough): 32.45
fractional CCR3 receptor occupancy (CCR3; 30 mg/kg i.p., at 8 hours): 99.86%
SMILES: NC(=O)c1ccc(CNC(=O)NC[C@H]2CN(Cc3ccc(Cl)c(Cl)c3)CCO2)cc1 [CCR3 inhibitor '994, 4-[[[[[[(2s)-4-[(3,4-dichlorophenyl)methyl]-2-morpholinyl]methyl]-amino]carbonyl]-amino]methyl]benzamide]
Ratio of mean lesion sizes ([1]; Table 1 study, 8 mg/kg po QD v Vehicle, Week 1): 0.82
Ratio of mean lesion sizes ([1]; Table 1 study, 8 mg/kg po QD v Vehicle, Week 2): 0.99
Ratio of mean lesion sizes ([1]; Table 1 study, 30 mg/kg '994 v 20 mg/kg Pazopanib, Week 1): 1.47
Ratio of mean lesion sizes ([1]; Table 1 study, 30 mg/kg '994 v 20 mg/kg Pazopanib, Week 2): 2.03
Ratio of mean lesion sizes ([1]; Table 1 study, 30 mg/kg po QD v Vehicle, Week 1): 0.70
Ratio of mean lesion sizes ([1]; Table 1 study, 30 mg/kg po QD v Vehicle, Week 2): 0.78
Ratio of mean lesion sizes ([1]; Table 2 (second) study, 2 mg/kg po QD v Vehicle, Week 1): 0.93
Ratio of mean lesion sizes ([1]; Table 2 (second) study, 2 mg/kg po QD v Vehicle, Week 2): 0.83
Ratio of mean lesion sizes ([1]; Table 2 (second) study, 8 mg/kg BID po v Vehicle, Week 1): 0.80
Ratio of mean lesion sizes ([1]; Table 2 (second) study, 8 mg/kg BID po v Vehicle, Week 2): 0.65
Ratio of mean lesion sizes ([1]; Table 2 (second) study, 8 mg/kg po QD v Vehicle, Week 1): 0.81
Ratio of mean lesion sizes ([1]; Table 2 (second) study, 8 mg/kg po QD v Vehicle, Week 2): 0.66
Ratio of mean lesion sizes ([1]; Table 2 (second) study, 30 mg/kg '994 v 20 mg/kg Pazopanib, Week 1): 2.05
Ratio of mean lesion sizes ([1]; Table 2 (second) study, 30 mg/kg '994 v 20 mg/kg Pazopanib, Week 2): 2.16
Ratio of mean lesion sizes ([1]; Table 2 (second) study, 30 mg/kg po QD v Vehicle, Week 1): 0.62
Ratio of mean lesion sizes ([1]; Table 2 (second) study, 30 mg/kg po QD v Vehicle, Week 2): 0.56
effect on neovascularization of retinal vessels ([2]; systemic 8 mg/kg BID i.p.): did not have an effect
effect on neovascularization of retinal vessels ([2]; topically 5 ul 10 mg/ml BID): did not have an effect
